Laboratory results reported in patent publication US12398107B2, “Fungicidal nitroanilino substituted pyrazoles” (FMC Corporation, priority 2018, dated 2025).

Key:
Type in all cases: in vivo
[1] = system: Phakopsora pachyrhizi; experiment: Test D: Asian soybean rust, preventive spray on soybean seedlings; details: 100 = 100% disease control, 0 = no control
Method in brief: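 Soybean seedlings sprayed to run-off with compound suspension (ppm, in 50/50 acetone/water with 250 ppm PEG400), inoculated next day with P. pachyrhizi spores, held 24 h saturated at 22°C then 8 days at 22°C. Visual rating 0-100% disease control relative to controls.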

[2] = system: Botrytis cinerea; experiment: Test E: tomato Botrytis, preventive spray on tomato seedlings; details: 100 = 100% disease control, 0 = no control
Method in brief: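 Preventive test: spore inoculation one day after run-off spraying of compound suspension (3% acetone, acetone/water 50/50, 250 ppm PEG400). Incubation 20 °C saturated humidity for 48 h, followed by 3 days at 24 °C growth chamber; disease control scored visually, 100 = full control.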

[3] = system: Blumeria graminis f. sp. tritici; experiment: Test C: wheat powdery mildew, preventive spray on wheat seedlings; details: rated after 8 days, 100 = 100% disease control, 0 = no control
Method in brief: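 Wheat seedlings got a run-off spray of test suspension (ppm in acetone/water 50/50, 250 ppm PEG400, acetone 3% of volume), then spore-dust inoculation with wheat powdery mildew one day later. After 8 days' growth-chamber incubation at 20° C, disease control scored visually on a 0–100 scale versus untreated controls.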

[4] = system: Alternaria solani; experiment: Test F: tomato early blight, preventive spray on tomato seedlings; details: 100 = 100% disease control, 0 = no control
Method in brief: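 Preventive test: one day after seedlings were sprayed to run-off with ppm-level suspensions (acetone/water 50/50, 250 ppm PEG400), A. solani spore inoculation followed. Incubation was 48 h at 27° C in saturated air plus 3 days at 20° C; disease control was scored visually versus controls (100 = full control).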

[5] = system: Septoria tritici; experiment: Test A: wheat leaf blotch, preventive spray on wheat seedlings; details: 100 = 100% disease control, 0 = no control relative to controls
Method in brief: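 Preventive test: seedlings sprayed to run-off one day before Septoria tritici spore inoculation, with ppm doses in acetone/water containing 250 ppm PEG400. After 48 h at 24 °C in saturated air and 17 days at 20 °C, plants were scored 0–100 for disease control versus untreated controls.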

[6] = system: Puccinia recondita f. sp. tritici; experiment: Test B: wheat leaf rust, preventive spray on wheat seedlings; details: 100 = 100% disease control, 0 = no control relative to controls
Method in brief: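 Wheat seedlings got a run-off spray (ppm, acetone/water 50/50, 250 ppm PEG400) and one day later a spore inoculum. After 24 h at 20° C. in saturated air and 7 days at 20° C., disease was scored as % control relative to controls (100 = full control).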

Row | Compound | pest or weed control at 10 ppm ([1]; Phakopsora pachyrhizi, 10 ppm, read-out: Test D disease control rating (Asian soybean rust)) [%] | pest or weed control at 50 ppm ([1]; Phakopsora pachyrhizi, 50 ppm, read-out: Test D disease control rating (Asian soybean rust)) [%] | pest or weed control at 10 ppm ([2]; Botrytis cinerea, 10 ppm, read-out: Test E disease control rating (tomato Botrytis)) [%] | pest or weed control at 50 ppm ([2]; Botrytis cinerea, 50 ppm, read-out: Test E disease control rating (tomato Botrytis)) [%] | pest or weed control at 10 ppm ([3]; Blumeria graminis, 192 h, 10 ppm, read-out: Test C disease control rating (wheat powdery mildew)) [%] | pest or weed control at 50 ppm ([3]; Blumeria graminis, 192 h, 50 ppm, read-out: Test C disease control rating (wheat powdery mildew)) [%] | pest or weed control at 10 ppm ([4]; Alternaria solani, 10 ppm, read-out: Test F disease control rating (tomato early blight)) [%] | pest or weed control at 50 ppm ([4]; Alternaria solani, 50 ppm, read-out: Test F disease control rating (tomato early blight)) [%] | pest or weed control at 10 ppm ([5]; Zymoseptoria tritici, 10 ppm, read-out: Test A disease control rating (wheat leaf blotch)) [%] | pest or weed control at 50 ppm ([5]; Zymoseptoria tritici, 50 ppm, read-out: Test A disease control rating (wheat leaf blotch)) [%] | pest or weed control at 10 ppm ([6]; 10 ppm, read-out: Test B disease control rating (wheat leaf rust)) [%] | pest or weed control at 50 ppm ([6]; 50 ppm, read-out: Test B disease control rating (wheat leaf rust)) [%] | Test D disease control rating (Asian soybean rust) ([1]; 50 ppm) [%] | Test E disease control rating (tomato Botrytis) ([2]; 50 ppm) [%] | Test C disease control rating (wheat powdery mildew) ([3]; 50 ppm) [%] | Test F disease control rating (tomato early blight) ([4]; 50 ppm) [%] | Test A disease control rating (wheat leaf blotch) ([5]; 50 ppm) [%] | Test B disease control rating (wheat leaf rust) ([6]; 50 ppm) [%]
1 | Cc1nn(C)c(Nc2c(F)cccc2[N+](=O)[O-])c1-c1ccc(F)cc1Br [Compound 60, 4-(2-bromo-4-fluorophenyl)-N-(2-fluoro-6-nitrophenyl)-1,3-dimethyl-1H-pyrazol-5-amine] | 0 | 97 | 99 | 99 | 85 | 100 | 75 | 99 | 99 | 100 | 100 | 100 |  |  |  |  |  | 
2 | Cc1nn(C)c(Nc2c(Cl)cccc2[N+](=O)[O-])c1-c1c(F)cc(F)cc1F [Compound 158] |  |  |  |  |  |  |  |  |  |  |  |  | 87 | 99 | 99 | 83 | 99 | 100
3 | COc1ccc(-c2c(C)nn(C)c2Nc2c(Cl)cc(C)cc2[N+](=O)[O-])c(Cl)c1 [Compound 66] |  |  |  |  |  |  |  |  |  |  |  |  | 97 | 98 | 98 | 96 | 100 | 100
4 | Cc1nn(C)c(Nc2c(F)cc(F)cc2[N+](=O)[O-])c1-c1ccc(F)cc1F [Compound 58] |  |  |  |  |  |  |  |  |  |  |  |  | 36 | 99 | 99 | 99 | 100 | 100
5 | COc1cc(F)c(-c2c(C)nn(C)c2Nc2c(Cl)cccc2[N+](=O)[O-])c(F)c1 [Compound 160] |  |  |  |  |  |  |  |  |  |  |  |  | 86 | 100 | 96 | 99 | 98 | 100
6 | Cc1nn(C)c(Nc2c(F)cc(Cl)cc2[N+](=O)[O-])c1-c1ccc(F)cc1F [Compound 102] |  |  |  |  |  |  |  |  |  |  |  |  | 48 | 99 | 100 | 99 | 100 | 100
7 | COc1ccc(Nc2c(-c3ccc(C#N)cc3Br)c(C)nn2C)c([N+](=O)[O-])c1 [Compound 180] |  |  |  |  |  |  |  |  |  |  |  |  | 0 | 99 | 79 | 98 | 100 | 98
8 | COc1cc(F)c(-c2c(C)nn(C)c2Nc2ccc(OC)cc2[N+](=O)[O-])c(F)c1 [Compound 161] |  |  |  |  |  |  |  |  |  |  |  |  | 0 | 100 | 100 | 99 | 100 | 100
9 | Cc1nn(C)c(Nc2ccc(Cl)cc2[N+](=O)[O-])c1-c1c(F)cccc1Cl [Compound 22] |  |  |  |  |  |  |  |  |  |  |  |  | 0 | 99 | 97 | 64 | 100 | 93
10 | CCn1nc(C)c(-c2ccc(F)cc2Cl)c1Nc1c(F)cccc1[N+](=O)[O-] [Compound 71] |  |  |  |  |  |  |  |  |  |  |  |  | 82 | 99 | 99 | 98 | 100 | 100
11 | COc1ccc(-c2c(C)nn(C)c2Nc2c(C)cccc2[N+](=O)[O-])c(Cl)c1 [Compound 183] |  |  |  |  |  |  |  |  |  |  |  |  | 0 | 100 | 78 | 58 | 100 | 99
12 | CCOc1ccc(Nc2c(-c3ccc(F)cc3Cl)c(C)nn2C)c([N+](=O)[O-])c1 [Compound 103] |  |  |  |  |  |  |  |  |  |  |  |  | 0 | 83 | 50 | 0 | 97 | 80
13 | Cc1nn(C)c(Nc2ccccc2[N+](=O)[O-])c1-c1ccc(F)cc1Cl [Compound 126] |  |  |  |  |  |  |  |  |  |  |  |  | 0 | 100 | 96 | 68 | 98 | 85
14 | Cc1cc(Cl)c(Nc2c(-c3ccc(F)cc3Cl)c(C)nn2C)c([N+](=O)[O-])c1 [Compound 31] |  |  |  |  |  |  |  |  |  |  |  |  | 98 | 99 | 100 | 76 | 100 | 100
15 | Cc1nn(C)c(Nc2ccc(Br)cc2[N+](=O)[O-])c1-c1ccc(F)cc1Cl [Compound 91] |  |  |  |  |  |  |  |  |  |  |  |  | 0 | 99 | 84 | 26 | 99 | 88
16 | Cc1nn(C)c(Nc2c(Cl)cc(Br)cc2[N+](=O)[O-])c1-c1ccc(F)cc1Cl [Compound 8] |  |  |  |  |  |  |  |  |  |  |  |  | 73 | 99 | 92 | 73 | 99 | 99
17 | Cc1nn(C)c(Nc2ccc(OC(F)F)cc2[N+](=O)[O-])c1-c1ccc(F)cc1Cl [Compound 28] |  |  |  |  |  |  |  |  |  |  |  |  | 0 | 99 | 69 | 0 | 91 | 68
18 | COc1ccc(Nc2c(-c3ccc(F)cc3Cl)c(C)nn2C)c([N+](=O)[O-])c1 [Compound 119] |  |  |  |  |  |  |  |  |  |  |  |  | 92 | 100 | 99 | 99 | 100 | 100
